Measurements: ChEMBL document CHEMBL1201862, “PubChem BioAssay data set” (2004)
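Step 1: Grow cells in 96-well plates. Step 2: Expose to compound for 48 hours at 5 concentrations. Step 3: Interpolate endpoints linearly; if unreached, use highest concentration. Abbreviation: GI50, concentration required for 50% inhibition of growth.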 Active and inactive are the calls of the source. No stated cut-off is given here; in the data, active = GI50 up to about 1.1 µM and inactive = higher.

Legend:
Experiment in all cases: growth of human tumour cells (NCI), 48 h
[1] = test system: KM12
[2] = test system: CCRF-CEM
[3] = test system: HOP-92
[4] = test system: HCC 2998
[5] = test system: UACC-62
[6] = test system: SK-MEL-28
[7] = test system: SW-620
[8] = test system: HOP-62
[9] = test system: RXF 393
[10] = test system: A498
[11] = test system: SK-MEL-5
[12] = test system: HCT-116
[13] = test system: NCI/ADR-RES
[14] = test system: K562
[15] = test system: OVCAR-8
[16] = test system: SN12C
[17] = test system: RPMI-8226
[18] = test system: OVCAR-4
[19] = test system: SF-268
[20] = test system: MOLT-4
[21] = test system: SNB-19
[22] = test system: PC-3
[23] = test system: Hs-578T
[24] = test system: M14
[25] = test system: UACC-257
[26] = test system: A549
[27] = test system: OVCAR-3
[28] = test system: MDA-N
[29] = test system: IGROV-1
[30] = test system: SK-OV-3
[31] = test system: BT-549
[32] = test system: U-251
[33] = test system: HL-60
[34] = test system: T47D
[35] = test system: SK-MEL-2
[36] = test system: HCT-15
[37] = test system: NCI-H226
[38] = test system: MDA-MB-435
[39] = test system: SF-539
[40] = test system: EKVX
[41] = test system: LOX IMVI
[42] = test system: MDA-MB-231
[43] = test system: OVCAR-5
[44] = test system: TK-10
[45] = test system: SF-295
[46] = test system: ACHN
[47] = test system: SR
[48] = test system: COLO 205
[49] = test system: DU-145
[50] = test system: NCI-H460
[51] = test system: CAKI-1
[52] = test system: NCI-H522
[53] = test system: SNB-75
[54] = test system: UO-31
[55] = test system: HT-29
[56] = test system: 786-0
[57] = test system: NCI-H23
[58] = test system: MCF7
[59] = test system: Malme-3M

O=C(O)CNC(=O)c1cccc2c(=O)c3ccccc3[nH]c12
GI50 [1]: > 20.9 µM (inactive)
GI50 [2]: 97.3 µM (inactive)
GI50 [3]: > 100 µM (inactive)
GI50 [4]: > 100 µM (inactive)
GI50 [5]: 99.8 µM (inactive)
GI50 [6]: > 100 µM (inactive)
GI50 [7]: > 100 µM (inactive)
GI50 [8]: > 100 µM (inactive)
GI50 [9]: > 100 µM (inactive)
GI50 [10]: > 100 µM (inactive)
GI50 [11]: 99.8 µM (inactive)
GI50 [12]: > 100 µM (inactive)
GI50 [13]: > 100 µM (inactive)
GI50 [14]: > 100 µM (inactive)
GI50 [15]: > 100 µM (inactive)
GI50 [16]: > 100 µM (inactive)
GI50 [17]: > 100 µM (inactive)
GI50 [18]: > 100 µM (inactive)
GI50 [19]: > 100 µM (inactive)
GI50 [20]: > 100 µM (inactive)
GI50 [21]: > 100 µM (inactive)
GI50 [22]: > 100 µM (inactive)
GI50 [23]: > 100 µM (inactive)
GI50 [24]: > 100 µM (inactive)
GI50 [25]: > 100 µM (inactive)
GI50 [26]: > 100 µM (inactive)
GI50 [27]: > 100 µM (inactive)
GI50 [28]: > 100 µM (inactive)
GI50 [29]: 26.9 µM (inactive)
GI50 [30]: > 100 µM (inactive)
GI50 [31]: 91.8 µM (inactive)
GI50 [32]: > 100 µM (inactive)
GI50 [33]: > 100 µM (inactive)
GI50 [34]: > 100 µM (inactive)
GI50 [35]: > 100 µM (inactive)
GI50 [36]: > 100 µM
GI50 [37]: > 100 µM (inactive)
GI50 [38]: > 100 µM (inactive)
GI50 [39]: > 100 µM (inactive)
GI50 [40]: > 100 µM (inactive)
GI50 [41]: > 100 µM (inactive)
GI50 [42]: > 100 µM (inactive)
GI50 [43]: > 100 µM (inactive)
GI50 [44]: > 100 µM (inactive)
GI50 [45]: > 100 µM (inactive)
GI50 [46]: > 100 µM (inactive)
GI50 [47]: 14.9 µM (inactive)
GI50 [48]: > 100 µM (inactive)
GI50 [49]: > 100 µM (inactive)
GI50 [50]: > 100 µM (inactive)
GI50 [51]: > 100 µM (inactive)
GI50 [52]: > 100 µM (inactive)
GI50 [53]: 84.7 µM (inactive)
GI50 [54]: 70.1 µM (inactive)
GI50 [55]: > 100 µM (inactive)
GI50 [56]: > 100 µM (inactive)
GI50 [57]: > 100 µM (inactive)
GI50 [58]: > 100 µM (inactive)
GI50 [59]: > 100 µM (inactive)
